# Data from US5370770A, “Method for deinking printed waste paper using soybean peroxidase” (priority 1992, dated 1994).
# Legend:
# [1] = target: T1, Horseradish Peroxidase (HRP) (Armoracia rusticana, UniProt P00433); experiment: Oxidation of methoxybenzene substrates by horseradish peroxidase (redox potential comparison); assay type: biochemical; conditions: absorbance change at substrate λmax
# T1 sequence (P00433 31-353): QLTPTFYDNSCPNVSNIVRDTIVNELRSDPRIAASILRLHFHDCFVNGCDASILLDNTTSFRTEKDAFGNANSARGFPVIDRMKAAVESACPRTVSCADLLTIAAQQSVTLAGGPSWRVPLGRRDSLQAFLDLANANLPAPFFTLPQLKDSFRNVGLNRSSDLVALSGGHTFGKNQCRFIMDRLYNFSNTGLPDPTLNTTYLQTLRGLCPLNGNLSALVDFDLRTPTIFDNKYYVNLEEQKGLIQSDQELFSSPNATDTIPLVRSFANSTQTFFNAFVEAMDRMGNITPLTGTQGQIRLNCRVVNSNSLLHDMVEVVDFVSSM
# From the text: (§1) Any of a variety of peroxidases can be used in the present invention.
# (§2) *all values in Δ Abs/(mg enzymemin).
# [2] = Half-wave redox potential of substrates; assay type: physicochemical; conditions: redox potential of substrate
# Soybean Peroxidase (SBP) = Soybean Peroxidase (SBP) (Glycine max, UniProt O22443); experiment: Oxidation of methoxybenzene substrates by soybean peroxidase (redox potential comparison); assay type: biochemical; conditions: absorbance change at substrate λmax
# From the text: as §1, §2
# **curve of ΔAbs/time slopes upward as reaction proceeds.
# Chain of Soybean Peroxidase (SBP) (O22443 27-332): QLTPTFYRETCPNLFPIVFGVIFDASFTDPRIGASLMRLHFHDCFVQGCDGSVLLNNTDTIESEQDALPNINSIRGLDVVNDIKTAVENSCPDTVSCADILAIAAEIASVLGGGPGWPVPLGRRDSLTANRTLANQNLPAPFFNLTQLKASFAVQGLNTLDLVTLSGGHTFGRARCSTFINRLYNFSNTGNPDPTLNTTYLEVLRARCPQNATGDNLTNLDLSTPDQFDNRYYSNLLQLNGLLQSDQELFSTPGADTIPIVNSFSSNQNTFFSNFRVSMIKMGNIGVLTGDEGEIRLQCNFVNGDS
Compound,HRP [1],E1/2 (V) [2] [V],SBP (Soybean Peroxidase (SBP))
"COc1cc(OC)c(OC)c(OC)c1 [1,2,3,5-tetramethoxybenzene]",0.30 Δ Abs/(mg enzymemin),1.09,3.02 Δ Abs/(mg enzymemin)
"COc1ccc(OC)c(OC)c1 [1,2,4-trimethoxybenzene]",1.64 Δ Abs/(mg enzymemin),1.12,9.23 Δ Abs/(mg enzymemin)
"COc1ccc(OC)cc1 [1,4-dimethoxybenzene]",0 Δ Abs/(mg enzymemin),1.34,0.072 Δ Abs/(mg enzymemin)
COc1c(OC)c(OC)c(OC)c(OC)c1OC [hexamethoxybenzene],0 Δ Abs/(mg enzymemin),1.24,0.22 Δ Abs/(mg enzymemin)
COc1cc(OC)c(OC)c(OC)c1OC [pentamethoxybenzene],2.50 Δ Abs/(mg enzymemin),1.07,8.76 Δ Abs/(mg enzymemin)
